Test results: US20130046025A1, “COMPOSITION WITH LOW SKIN IRRITATION FOR TRANSDERMAL DELIVERY OF TOLTERODINE” (SK Chemicals Co., Ltd., priority 2010, published 2013)

System: forearm skin of a test subject
Assay: Skin irritation test of patches (primary skin irritation index)
Assay type: in vivo
Details: for Effect on relief of skin irritation caused by tolterodine, result in words: conclusion from Table 4, essential oil in tolterodine patch
Description: Each of the patches produced in Production Examples 1 and 2 was cut to a size of 1 cm×1 cm. The specimen was attached to the forearm skin of a test subject and fixed with a medical tape to prevent detachment during the test period. After 24 hr, the medical tape and the patch were removed with care. After 1 hr, the primary skin irritation index of the patch for skin irritations including erythema and edema was determined with the help of an expert.
Skin irritation tests were conducted in the same manner as in Test Example 1.

SMILES	Effect on relief of skin irritation caused by tolterodine, result in words	Skin irritation (erythema, edema), result in words (conclusion from Table 2)
C=CCc1ccc(O)c(OC)c1 [eugenol]	outstanding effects on skin irritation relief	
Cc1ccc(O)c([C@H](CCN(C(C)C)C(C)C)c2ccccc2)c1 [tolterodine, 2-[(1R)-3-(diisopropylamino)-1-phenylpropyl)-4-methylphenol]		causing skin irritations
CC(C)=CCC[C@](C)(O)C1CC=C(C)CC1 (stereo partly drawn) [bisabolol]	outstanding effects on skin irritation relief	
